The subject of the experiment is Human artery smooth muscle cells. As to the kind of experiment: Smooth muscle cell proliferation (cell count by flow cytometry). The experiment is classed as cell-based. The conditions noted are these: 0.01-1 μM, 48 h; FIG. 6, FIG. 7A. The protocol: Human artery smooth muscle cells were seeded at 20,000 cells per well on 24-well plates (3 wells per condition) in growth medium and allowed to adhere overnight at 37° C. […] Cells were washed with PBS, trypsinized, and counted using a flow cytometer (Beckman-Coulter FC500).

As to `COCc1c(C(C)C)nc(C(C)C)c(/C=C/[C@@H](O)C[C@@H](O)CC(=O)O)c1-c1ccc(F)cc1` [free cerivastatin, (3R,5S,6E)-7-[4-(4-fluorophenyl)-5-(methoxymethyl)-2,6-bis(propan-2-yl)pyridin-3-yl]-3,5-dihydroxyhept-6-enoic acid], the “proliferation of SMCs” value was “inhibits the proliferation of SMCs”.
